For orientation: MIC means the lowest concentration found to suppress growth. A word on the IC50: it is the concentration that gives 50% inhibition.

The test system of experiment [1] is E. cloacae 144200 expressing Class C P99 AmpC. In words: Broth microdilution MIC assay, partner ceftazidime.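 Further: ceftazidime held fixed at 4 µg/mL.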 The following applies: Enterobacter cloacae, read-out: MIC of Exemplary Compounds in presence of fixed β-lactams, Fixed CAZ, E. cl. 144200 p99 AmpC. The class given is cell-based. Background: Broth dilution looks for growth in wells or tubes with falling amounts of substance.

In experiment [2] the test system is E. coli ESBL4 expressing CTX-M-15. Briefly: Broth microdilution MIC assay, partner ceftazidime.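 Further: ceftazidime held fixed at 4 µg/mL.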 Format: cell-based. Conditions: Escherichia coli, read-out: MIC of Exemplary Compounds in presence of fixed β-lactams, Fixed CAZ, E. coli ESBL4 CTX-M-15.
The subject of experiment [3] is S. aureus MSSA-7 producing penicillinase PC-1. In words: Broth microdilution MIC assay, partner piperacillin. The class given is cell-based. The following applies: Staphylococcus aureus, fixed piperacillin 4 μg/mL, read-out: MIC of Exemplary Compounds in presence of fixed β-lactams, Fixed Pip, S. aureus MSSA-7 PC-1.
A further experiment has as its target T1, VIM-2 (Escherichia coli, UniProt Q5U7L7).
T1 construct: made in house; host or cells: E. coli BL21(DE3)
Briefly: β-Lactamase enzyme inhibition assay, VIM-2 (nitrocefin substrate). Format: biochemical. Conditions: nitrocefin substrate 100 μM, 15 min preincubation at 37° C.; read-out: IC50, Class B VIM-2. The method, then: For Vim-2 metallo β-lactamase, the procedure was identical with the following exceptions, first the protein was not pH adjusted to pH 5 with 50 mM sodium acetate, second, the chromatography step was changed to a 5 ml Q sepharose anion exchange column pre-equilibrated with 50 mM Hepes pH 7.5, and elution of the protein was achieved by a linear gradient of NaCl (0-600 mM). Finally, the VIM-2 purification required a second run (3rd step) on the Q sepharose anion exchange column to achieve acceptable purity (>90%).
An equal volume of diluted enzyme stock was added, and the plates were incubated at 37° C. for 15 min. Nitrocefin was used as substrate for p99 AmpC, VIM-2 and OXA-1 and dispensed into each well at a final concentration of 100 μM. Absorbance at 486 nm was immediately monitored for 10 min using a Biotek Powerwave XS2 microplate spectrophotometer using the GEN5 softweare package (Biotek Instruments, Winooski Vt.). In an analogous fashion, imipenem was used as substrate for Kpc-2 and Cefotaxime was used for SHV-5, while changes in absorbance upon hydrolysis of the β-lactam ring were monitored at 300 nm and 260 nm respectively in UV-transparent 96-well microtiter assay plates. Maximum rates of hydrolysis were compared to those in control wells (without inhibitors), and percentages of enzyme inhibition were calculated for each concentration of inhibitor. The concentration of inhibitor needed to reduce the initial rate of hydrolysis of substrate by 50% (IC50) was calculated as the residual activity of β-lactamase at 486 nm using GraFit version 7 kinetics software package (Erithacus Software, Surrey, UK).
Using the methodology described above, examples of the current invention were evaluated for their ability to inhibit β-lactamase enzymes from all four Ambler classifications (A through D). […] NT=Not tested.

For experiment [4], the system named is K. pneumoniae A-1797 expressing KPC-2 and VIM-4. Briefly: Broth microdilution MIC assay, partner meropenem. Format: cell-based. The following applies: Klebsiella pneumoniae, read-out: MIC of Exemplary Compounds in presence of fixed β-lactams, Fixed Mero, K.P. A-1797 KPC-2 VIM-4.
In experiment [5] the test system is P. aeruginosa Ps296 expressing VIM-2. Briefly: Broth microdilution MIC assay, partner meropenem. Format: cell-based. Conditions: Pseudomonas aeruginosa, read-out: MIC of Exemplary Compounds in presence of fixed β-lactams, Fixed Mero, P. aerug. Ps296 VIM-2.
The test system of experiment [6] is K. pneumoniae 156319 expressing KPC-3. In words: Broth microdilution MIC assay, partner meropenem. The class given is cell-based. The following applies: Klebsiella pneumoniae, read-out: MIC of Exemplary Compounds in presence of fixed β-lactams, Fixed Mero, K.P. 156319 KPC-3.

On to `CN1CCc2cc(C(=O)N[C@H]3Cc4cccc(C(=O)O)c4OB3O)ccc2C1` [Example 7, (R)-2-hydroxy-3-(2-methyl-1,2,3,4-tetrahydroisoquinoline-6-carboxamido)-3,4-dihydro-2H-benzo[e][1,2]oxaborinine-8-carboxylic acid], for which the MIC is under 4 µg/mL in experiment [1]; under 4 µg/mL in experiment [2]; under 4 µg/mL in experiment [3]; under 4 µg/mL in experiment [4]; over 32 µg/mL in experiment [5]; 8 to 32 µg/mL in experiment [6]. Moreover, the IC50 at VIM-2 was 100 to 1000 nM.
`N=C(N)N1Cc2ccc(CC(=O)N[C@H]3Cc4cccc(C(=O)O)c4OB3O)cc2C1` [Example 37, (3R)-3-[[2-(2-carbamimidoylisoindolin-5-yl)acetyl]amino]-2-hydroxy-3,4-dihydro-1,2-benzoxaborinine-8-carboxylic acid]: the MIC in experiment [1] is under 4 µg/mL; in experiment [2], under 4 µg/mL; in experiment [3] it was under 4 µg/mL; in experiment [4], over 32 µg/mL; in experiment [5], under 4 µg/mL; in experiment [6], under 4 µg/mL. In addition, the IC50 at VIM-2 fell in the range of 100 to 1000 nM.
With `O=C(N[C@H]1Cc2cccc(C(=O)O)c2OB1O)c1ccc2[nH]ccc2c1` [Example 26, (R)-2-hydroxy-3-(1H-indole-5-carboxamido)-3,4-dihydro-2H-benzo[e][1,2]oxaborinine-8-carboxylic acid], the MIC in experiment [1] is under 4 µg/mL; in experiment [2] it was under 4 µg/mL; in experiment [3], under 4 µg/mL; in experiment [4], 8 to 32 µg/mL; in experiment [5], 8 to 32 µg/mL; in experiment [6], under 4 µg/mL. Also, the IC50 at VIM-2 is 100 to 1000 nM.
In the case of `NCc1cc(C(=O)N[C@H]2Cc3cccc(C(=O)O)c3OB2O)cnc1CN` [Example 62, (R)-3-(5,6-bis(aminomethyl)nicotinamido)-2-hydroxy-3,4-dihydro-2H-benzo[e][1,2]oxaborinine-8-carboxylic acid], the MIC in experiment [1], in experiment [2], in experiment [3], in experiment [4], in experiment [5] and in experiment [6] was under 4 µg/mL each time. Besides, on VIM-2, the IC50 was in the range of 100 to 1000 nM.
In the case of `NCCOc1ccc(C(=O)N[C@H]2Cc3cccc(C(=O)O)c3OB2O)cc1O` [Example 40, (R)-3-(4-(2-aminoethoxy)-3-hydroxybenzamido)-2-hydroxy-3,4-dihydro-2H-benzo[e][1,2]oxaborinine-8-carboxylic acid], the MIC in experiment [1], in experiment [2], in experiment [3], in experiment [4], in experiment [5] and in experiment [6] was under 4 µg/mL throughout. Moreover, at VIM-2, the 50% inhibitory concentration (IC50) was under 100 nM.
As for `Cn1ccc2ccc(C(=O)N[C@H]3Cc4cccc(C(=O)O)c4OB3O)cc21` [Example 43, (R)-2-Hydroxy-3-[(1-methyl-1H-indole-6-carbonyl)-amino]-3,4-dihydro-2H-benzo[e][1,2]oxaborinine-8-carboxylic acid], the MIC was under 4 µg/mL in experiment [1]; under 4 µg/mL in experiment [2]; under 4 µg/mL in experiment [3]; over 32 µg/mL in experiment [4]; over 32 µg/mL in experiment [5]; over 32 µg/mL in experiment [6]. In addition, the IC50 on VIM-2 lay within 100 to 1000 nM.
On to `O=C(N[C@H]1Cc2cccc(C(=O)O)c2OB1O)c1ccc2ncccc2c1` [Example 28, (R)-2-hydroxy-3-(quinoline-6-carboxamido)-3,4-dihydro-2H-benzo[e][1,2]oxaborinine-8-carboxylic acid], for which the MIC in experiment [1] is under 4 µg/mL; in experiment [2], under 4 µg/mL; in experiment [3], under 4 µg/mL; in experiment [4], 8 to 32 µg/mL; in experiment [5], over 32 µg/mL; in experiment [6] it was under 4 µg/mL. Besides, the IC50 on VIM-2 lay within 1000 to 10000 nM.
As to `NC1=Nc2cc(C(=O)N[C@H]3Cc4cccc(C(=O)O)c4OB3O)ccc2CN1` [Example 15, (R)-3-(2-amino-3,4-dihydroquinazoline-7-carboxamido)-2-hydroxy-3,4-dihydro-2H-benzo[e][1,2]oxaborinine-8-carboxylic acid], the MIC in experiment [1] was under 4 µg/mL; in experiment [2], under 4 µg/mL; in experiment [3], under 4 µg/mL; in experiment [4], 8 to 32 µg/mL; in experiment [5], under 4 µg/mL; in experiment [6], 8 to 32 µg/mL. Moreover, the IC50 at VIM-2 was 1000 to 10000 nM.
As for `NCCn1ccc2ccc(C(=O)N[C@H]3Cc4cccc(C(=O)O)c4OB3O)cc21` [Example 41, (R)-3-{[1-(2-Amino-ethyl)-1H-indole-6-carbonyl]-amino}-2-hydroxy-3,4-dihydro-2H-benzo[e][1,2]oxaborinine-8-carboxylic acid], the MIC in experiment [1] is under 4 µg/mL; in experiment [2], under 4 µg/mL; in experiment [3], under 4 µg/mL; in experiment [4], under 4 µg/mL; in experiment [5], 8 to 32 µg/mL; in experiment [6], over 32 µg/mL. Further, the IC50 at VIM-2 was under 100 nM.
For `O=C(N[C@H]1Cc2cccc(C(=O)O)c2OB1O)c1ccc2c(c1)CN(Cc1cccnc1)C2` [Example 12, (R)-2-hydroxy-3-(2-(pyridin-3-ylmethyl)isoindoline-5-carboxamido)-3,4-dihydro-2H-benzo[e][1,2]oxaborinine-8-carboxylic acid], the MIC in experiment [1] was under 4 µg/mL; in experiment [2] it was 8 to 32 µg/mL; in experiment [3], under 4 µg/mL; in experiment [4], 8 to 32 µg/mL; in experiment [5] it was over 32 µg/mL; in experiment [6], 8 to 32 µg/mL. Also, at VIM-2, the IC50 was in the range of 100 to 1000 nM.
As for `Cc1ccc(C(=O)N[C@H]2Cc3cccc(C(=O)O)c3OB2O)cc1N` [Example 23, (R)-3-(3-amino-4-methylbenzamido)-2-hydroxy-3,4-dihydro-2H-benzo[e][1,2]oxaborinine-8-carboxylic acid], the MIC in experiment [1] was under 4 µg/mL; in experiment [2], under 4 µg/mL; in experiment [3] it was under 4 µg/mL; in experiment [4], 8 to 32 µg/mL; in experiment [5] it was 8 to 32 µg/mL; in experiment [6] it was under 4 µg/mL. In addition, the IC50 at VIM-2 lay in the range of 100 to 1000 nM.
Consider `O=C(Cc1cnc2c(c1)CCCN2)N[C@H]1Cc2cccc(C(=O)O)c2OB1O` [Example 13, (R)-2-hydroxy-3-(2-(5,6,7,8-tetrahydro-1,8-naphthyridin-3-yl)acetamido)-3,4-dihydro-2H-benzo[e][1,2]oxaborinine-8-carboxylic acid], for which the MIC was under 4 µg/mL in experiment [1]; under 4 µg/mL in experiment [2]; under 4 µg/mL in experiment [3]; 8 to 32 µg/mL in experiment [4]; 8 to 32 µg/mL in experiment [5]; under 4 µg/mL in experiment [6]. The IC50 on VIM-2 is 1000 to 10000 nM.
Turning to `N=C(N)NCc1ccc(C(=O)N[C@H]2Cc3cccc(C(=O)O)c3OB2O)cc1CNC(=N)N` [Example 25, (R)-3-(3,4-bis(guanidinomethyl)benzamido)-2-hydroxy-3,4-dihydro-2H-benzo[e][1,2]oxaborinine-8-carboxylic acid], the MIC in experiment [1], in experiment [2], in experiment [3], in experiment [4], in experiment [5] and in experiment [6] was under 4 µg/mL in each case. In addition, the half-inhibitory concentration (IC50) on VIM-2 is under 100 nM.
Consider `O=C(N[C@H]1Cc2cccc(C(=O)O)c2OB1O)c1ccc(-c2ccccn2)cc1` [Example 24, (R)-2-hydroxy-3-(4-(pyridin-2-yl)benzamido)-3,4-dihydro-2H-benzo[e][1,2]oxaborinine-8-carboxylic acid], for which the MIC is under 4 µg/mL in experiment [1]; under 4 µg/mL in experiment [2]; under 4 µg/mL in experiment [3]; 8 to 32 µg/mL in experiment [4]; 8 to 32 µg/mL in experiment [5]; 8 to 32 µg/mL in experiment [6]. For the same compound, the IC50 on VIM-2 lay in the range of 100 to 1000 nM.

For the origin of these results see patent US9403850B2, “Beta-lactamase inhibitors” (priority 2013, dated 2016).
